Results taken from patent US20230392170A1, “BIG-IN: A VERSATILE PLATFORM FOR LOCUS-SCALE GENOME REWRITING AND VERIFICATION” (New York University, priority 2020, published 2023).
Entries after “also recorded” stand apart in the source; their conditions may differ.

Assays:
H1 hESCs [1] = assay: Proaerolysin-induced cell death, Crystal Violet staining / kill-curve; format: cell-based, human
Procedure: (§1) FIG. 8. Development of an efficient counterselection strategy. a, Lack of paracrine activity in GCV/TK bystander effect. Parental H1 cells were grown for 7 days with regular StemFlex medium with or without 0.1 μM GCV or with a 1:1 mixture of regular medium and conditioned medium harvested from LP-TK cells grown with or without 0.1 μM GCV. […] Bars represent mean+S.D. for technical replicates (n=3). b, PCR genotyping for parental (Par), ΔPIGA and LP-PIGA H1 hESCs. Primers target a region of the PIGA gene (WT PIGA), the novel junction formed following PIGA deletion (ΔPIGA), a region of HPRT1 gene (WT HPRT1) and the two novel junctions formed between LP-PIGA and the surrounding genome (LP L and R Jx). c, Proaerolysin-induced cell death. The indicated H1 hESCs were treated with 0.5 nM proaerolysin for 1 day and stained with Crystal Violet. Proaerolysin resistance is conferred by PIGA inactivation and restored by hmPIGA expression. d, Rapid proaerolysin-induced cell death. e, Proaerolysin kill-curve for H1 hESCs and BL6xCAST mESCs. Cells were treated with proaerolysin for 1 day and assayed 3 days (H1) or 1 day (BL6xCAST) post treatment. Experiment was conducted in replicates (H1, n=4; BL6xCAST, n=2) and data are represented as mean±S.D. f, CD59/HLA flow cytometry of H1 hESCs. Note the complete loss of CD59, a GPI-anchored protein, in ΔPIGA cells, and the retention of HLA, a non-GPI-anchored membranal protein. g, Flow cytometry of H1 hESCs showing the reconstitution of CD59 expression in LP-PIGA cells.
Integration of a landing pad expressing a human mini PIGA gene (hmPIGA) to the HPRT1 locus resensitized H1 ΔPIGA hESCs to proaerolysin and restored CD59 expression (FIG. 7c, FIG. 7g). Importantly, rare ΔPIGA H1 hESCs were efficiently isolated when co-cultured with parental H1 cells by applying proaerolysin selection (FIG. 2d). Similarly, the Piga/proaerolysin counterselection strategy was used to efficiently isolate rare mESCs (FIG. 2e).

Parental H1 cells = assay: GCV/TK bystander paracrine test: parental cells in medium or LP-TK conditioned medium with GCV; format: cell-based, human; details: 0.1 μM GCV, 7 days, also when preincubated with LP-TK cells (conditioned medium)
Procedure: as §1, with “Note the complete loss of CD59, a GPI-anchored protein, in ΔPIGA cells, and the retention of HLA, a non-GPI-anchored membranal protein. g, Flow cytometry of H1 hESCs showing the reconstitution of CD59 expression in LP-PIGA cells.” left out

[2] = system: H1 LP-TK hESCs (HSV1-ΔTK); assay: GCV kill-curve assay, LP-TK clone 581 vs parental cells, live cells by PrestoBlue; details: indicated GCV concentrations for 3 days
Procedure: Bars represent mean+S.D. of technical replicates (n=3). c, H1 LP-TK clone 581 and non-engineered parental H1 hESCs were treated with the indicated concentrations of GCV for 3 days, followed by quantification of live cells using PrestoBlue. Data were normalized to the value of untreated cells.
PrestoBlue (ThermoFisher Scientific A13262) staining was performed according to the manufacturer's protocol.

H1 hESCs [3] = assay: TK/GCV counterselection in co-cultures of TK-negative and TK-positive (LP-TK) cells, live cells by PrestoBlue; format: cell-based, human; details: 1 μM GCV for 4 days
Procedure: FIG. 2. Development of an efficient counterselection strategy. a, Parental (TK−) and LP-TK (TK+) H1 hESCs were co-cultured at the indicated ratios, treated with 1 μM, GCV for 4 days, and assayed for the number of live cells using PrestoBlue. Cell counts are shown relative to unmixed parental cells. Bars show mean+S.D. (n=2). b, GCV enters TK+ cells and is metabolized into the toxic membrane-impermeable compound GCV-TP, which diffuses into neighboring cells and induces bystander cell death in TK-cells. c, Big-IN counterselection strategy using PIGA/Proaerolysin. d, Parental and ΔPIGA H1 hESCs co-cultured at the indicated ratios for three days were treated with 1 nM proaerolysin for 1 day and stained with Crystal Violet 3 days later. e, Parental and ΔPiga BL6xCAST mESCs were co-cultured at the indicated ratios for one day, treated with 1 nM proaerolysin for 1 day, stained with Crystal Violet 5 days later, and colonies were counted. Bars represent mean+S.D. (n=2).
Delivery of large DNA through cassette exchange is an infrequent event, requiring selection to obtain practical efficiency. The HSV1-TK gene is a widely used counterselectable marker that renders cells sensitive to GCV by converting it to the toxic metabolite GCV-triphosphate (GCV-TP), which inhibits DNA synthesis and leads to cell death^38. […]

Row | Compound | sensitivity of H1 ΔPIGA hESCs after landing pad expressing hmPIGA at HPRT1 (H1 hESCs [1]; LP-PIGA H1 hESCs) | killing of parental H1 hESCs (H1 hESCs [1]; parental H1 hESCs) | sensitivity of ΔPIGA H1 hESCs (H1 hESCs [1]; ΔPIGA cells (PIGA deleted using CRISPR/Cas9)) | effect on parental (TK-negative) H1 cells (Parental H1 cells) | cytotoxicity to LP-TK (HSV1-ΔTK expressing) H1 hESCs [2] | TK-negative cells that died when mixed with TK-positive cells (H1 hESCs [3]; 1:1 ratio TK-negative:TK-positive) | death of TK-negative cells when mixed with TK-positive cells (H1 hESCs [3]; 1:10 ratio TK-negative:TK-positive)
1 | proaerolysin: a bacterial prototoxin; perforates the plasma membrane upon binding to GPI anchors on the cell surface | resensitized | efficiently killed | entirely resistant |  |  |  | 
2 | Nc1nc(O)c2ncn(COC(CO)CO)c2n1 [GCV, Ganciclovir] |  |  |  | no effect | kills LP-TK cells; also recorded: Robust cytotoxic activity | More than 80% | all died
